According to publication PMC8103899, “Allyl Isothiocyanate: A TAS2R38 Receptor-Dependent Immune Modulator at the Interface Between Personalized Medicine and Nutrition” (Frontiers in Immunology, 2021):
Values belong to the compound of their own block, whether it stands above or below them.

Legend:
[1] = test system: TAS2R38-PAV receptor; design: method as in PMID 20022913; details: cited from earlier work
[2] = test system: TRPA1; design: method as in PMID 21763756; details: calcium assays; cited from earlier work
[3] = Human food intervention: AITC metabolite plasma levels after mustard intake (LC-ESI-MS/MS); assay type: in vivo; details: for detection in plasma: human volunteers after mustard preparation (data not shown); for blood plasma level: human volunteers
Experimental: AITC metabolite quantification was carried out in blood plasma samples derived from an intervention study at the University Medical Center in Freiburg, Germany. Samples were from 4 healthy young adults (3 females, 1 male, aged between 30-40 years) having a normal BMI, and were non-smokers. Each subject consumed one time 10 g of a commercially available mustard preparation ([…] Munich, Germany) containing 24.74 ± 1.76 μmol/g fresh weight preformed AITC on an empty stomach with optional consumption of white bread. The intervention was preceded by a 48 h wash-out phase consisting of a glucosinolate/ITC-free diet. After 30 min and optionally 60 min, blood was collected by venipuncture in serum tubes and centrifuged at 2000g for 10 min, 4°C to obtain serum. Subsequently, TFA was added and the samples frozen at -80°C. The preparation of serum samples (300 μL serum and 100 μL TFA) was conducted as described by Kühn et al. ([37]). The frozen samples were thawed, vortexed (1 min) and centrifuged (4 °C, 10 min, 20.854 x g). The supernatant was transferred to SPE cartridges. Prior to transferring, SPE cartridges were conditioned with acetonitrile (ACN, 3 mL) and equilibrated with water (3 mL). After sample application, the cartridges were washed with formic acid (FA, 3 mL, 0.1% in water) and the metabolites were eluted with FA (3 mL, 0.1% in ACN:water, 90:10, v/v). […] The samples were re-dissolved in 100 μL FA (0.1% in ACN:water, 90:10, v/v). Sample aliquots of 5 μL were injected into the LC-ESI-MS/MS system. LC-ESI-MS/MS analysis was performed on an API4000 triple quadrupole mass spectrometer (AB Sciex Germany GmbH, Darmstadt, Germany) equipped with an Agilent 1200 LC system (Agilent Technologies Deutschland GmbH & Co. KG, Waldbronn, Germany). For data acquisition and processing the software Analyst 1.6.1 (AB Sciex Germany GmbH, Darmstadt, Germany) was used. […] AITC-CysGly; AITC-Cys; AITC-NAC) was conducted according to Platz et al. ([38]) with minor modifications. The separation was performed on a Kinetex C18 column (Phenomenex, 5 μm, 100 Å, 150 x 2.1 mm). The autosampler operated at 4°C and the set temperature for the oven was 20°C. A constant flow of 300 μL/min was used for the mobile phase which consisted of 0.1% FA in water (A) and 0.1% FA in ACN (B). […] In order to equilibrate the column, A was increased to 90% and held for 5 min. The relevant MS parameters include an entrance potential of -10 V, a desolvation gas temperature of 450°C, ion spray potential of -4.5 kV, gas 1 and gas 2 at 46 psi and a curtain gas pressure at 10 psi.

[4] = test system: TAS2R38-PAV; design: method as in PMID 28902853; details: transfected HEK293 cells (~0.9% DMSO solution), approximately; cited from earlier work
[5] = test system: intracellular calcium release; design: method as in PMID 8393876; details: 1% DMSO; cited from earlier work
[6] = target: T1, TAS2R38 receptor (Homo sapiens, UniProt P59533, A49P/I296V); assay: Calcium flux assay in human PBMC (flow cytometry, Fluo-4 AM); details: human PAV/PAV monocytes
T1 sequence (P59533 1-333 A49P/I296V): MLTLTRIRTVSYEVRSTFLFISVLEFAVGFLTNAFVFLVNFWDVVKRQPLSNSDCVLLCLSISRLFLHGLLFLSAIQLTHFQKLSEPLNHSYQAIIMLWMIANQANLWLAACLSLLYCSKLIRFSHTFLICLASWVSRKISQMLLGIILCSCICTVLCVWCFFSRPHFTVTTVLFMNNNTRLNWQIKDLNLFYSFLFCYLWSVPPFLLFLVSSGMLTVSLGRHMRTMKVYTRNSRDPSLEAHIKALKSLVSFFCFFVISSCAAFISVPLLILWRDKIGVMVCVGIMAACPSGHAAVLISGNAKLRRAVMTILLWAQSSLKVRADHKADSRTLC

[7] = test system: extracellular calcium influx in monocytes; assay: Calcium flux in PAV/PAV monocytes after EDTA pre-treatment before AITC; details: 0.5 mM EDTA
[8] = test system: TAS2R38; design: method as in PMID 23041624; details: sinonasal cells, TAS2R38 genotype dependent; cited from earlier work
[9] = target: PLC-β2 (Homo sapiens, UniProt Q00722); assay: Calcium flux in PAV/PAV monocytes after PLC-β2 antagonist pre-treatment before AITC; details: cell pretreatment with U73122 for 30 min
[10] = target: TRPV1 (Homo sapiens, UniProt Q8NER1); assay: Calcium flux in PAV/PAV monocytes after TRPV1 antagonist pre-treatment before AITC; assay type: cell-based
Experimental: Baseline fluorescence was recorded for 60 sec.

[11] = test system: sinonasal epithelial cells; design: method as in PMID 24531552; details: cited from earlier work
[12] = test system: LPS stimulated leukocytes; details: cited from earlier work

Chain of TRPV1 (Q8NER1 whole entry): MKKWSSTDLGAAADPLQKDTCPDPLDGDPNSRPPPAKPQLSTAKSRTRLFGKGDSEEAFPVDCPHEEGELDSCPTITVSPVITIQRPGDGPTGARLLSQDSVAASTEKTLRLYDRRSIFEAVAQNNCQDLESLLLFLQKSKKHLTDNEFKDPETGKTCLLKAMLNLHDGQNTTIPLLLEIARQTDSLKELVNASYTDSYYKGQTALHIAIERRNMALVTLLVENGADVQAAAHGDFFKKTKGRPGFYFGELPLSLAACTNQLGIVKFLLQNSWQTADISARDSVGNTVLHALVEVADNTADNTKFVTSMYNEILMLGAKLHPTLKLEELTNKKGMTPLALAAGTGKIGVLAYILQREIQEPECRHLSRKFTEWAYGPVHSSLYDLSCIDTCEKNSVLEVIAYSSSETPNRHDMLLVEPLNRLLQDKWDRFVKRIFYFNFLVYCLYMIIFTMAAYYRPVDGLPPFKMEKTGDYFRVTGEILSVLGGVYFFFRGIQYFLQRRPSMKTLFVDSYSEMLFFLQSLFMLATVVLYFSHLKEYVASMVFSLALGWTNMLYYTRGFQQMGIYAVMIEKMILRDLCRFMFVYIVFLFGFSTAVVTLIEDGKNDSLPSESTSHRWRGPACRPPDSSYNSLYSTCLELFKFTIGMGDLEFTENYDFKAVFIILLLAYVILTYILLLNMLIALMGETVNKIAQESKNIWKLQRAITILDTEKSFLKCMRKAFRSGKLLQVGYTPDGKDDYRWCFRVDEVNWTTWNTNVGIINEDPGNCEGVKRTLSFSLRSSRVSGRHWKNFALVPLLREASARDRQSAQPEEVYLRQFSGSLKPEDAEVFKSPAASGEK
Chain of PLC-β2 (Q00722 whole entry): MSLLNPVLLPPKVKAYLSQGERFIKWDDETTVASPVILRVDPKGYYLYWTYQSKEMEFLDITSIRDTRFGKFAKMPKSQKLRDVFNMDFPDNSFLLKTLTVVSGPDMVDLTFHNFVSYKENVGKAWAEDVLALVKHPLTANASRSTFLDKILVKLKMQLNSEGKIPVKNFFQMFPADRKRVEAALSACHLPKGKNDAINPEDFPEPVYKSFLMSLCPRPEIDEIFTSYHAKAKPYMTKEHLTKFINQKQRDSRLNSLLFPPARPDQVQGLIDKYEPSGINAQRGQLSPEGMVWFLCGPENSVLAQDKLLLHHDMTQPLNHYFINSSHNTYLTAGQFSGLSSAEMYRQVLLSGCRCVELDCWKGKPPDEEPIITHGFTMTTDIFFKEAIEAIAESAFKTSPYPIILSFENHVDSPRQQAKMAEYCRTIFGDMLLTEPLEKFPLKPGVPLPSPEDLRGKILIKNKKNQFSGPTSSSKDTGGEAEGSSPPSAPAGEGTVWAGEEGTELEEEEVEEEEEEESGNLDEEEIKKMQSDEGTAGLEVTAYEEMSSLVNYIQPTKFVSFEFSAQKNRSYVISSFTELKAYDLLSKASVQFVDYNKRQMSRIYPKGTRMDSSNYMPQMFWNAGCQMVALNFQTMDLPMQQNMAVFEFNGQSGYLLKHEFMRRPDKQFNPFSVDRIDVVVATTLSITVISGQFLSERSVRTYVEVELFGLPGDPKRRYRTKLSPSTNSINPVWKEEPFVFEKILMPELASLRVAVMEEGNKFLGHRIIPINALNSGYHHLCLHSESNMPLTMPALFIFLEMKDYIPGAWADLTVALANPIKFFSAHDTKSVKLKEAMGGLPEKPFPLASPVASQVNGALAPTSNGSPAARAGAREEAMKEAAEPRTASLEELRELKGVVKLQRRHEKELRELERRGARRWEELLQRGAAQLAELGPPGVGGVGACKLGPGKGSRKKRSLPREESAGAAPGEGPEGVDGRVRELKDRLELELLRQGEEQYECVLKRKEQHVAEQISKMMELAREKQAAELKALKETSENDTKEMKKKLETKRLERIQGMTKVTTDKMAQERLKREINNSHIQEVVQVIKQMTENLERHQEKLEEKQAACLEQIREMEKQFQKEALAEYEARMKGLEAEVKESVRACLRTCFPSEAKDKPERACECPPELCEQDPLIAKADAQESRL

SMILES: C=CCC(=NOS(=O)(=O)O)S[C@@H]1O[C@H](CO)[C@@H](O)[C@H](O)[C@H]1O (stereo in doubt) [sinigrin]
- activation of TAS2R38 taster variant among 25 TAS2Rs ([1]; HEK293T-Gα16gust44 cells transiently transfected): selectively triggered the taster variant

SMILES: C=CCNC(=S)SC[C@H](N)C(=O)NCC(=O)O [AITC-CG]
- detection in plasma [3]: No other AITC metabolites (AITC-GSH or AITC-CG) could be detected

SMILES: C=CCNC(=S)SC[C@H](NC(=O)CC[C@H](N)C(=O)O)C(=O)NCC(=O)O [AITC-GSH]
- detection in plasma [3]: No other AITC metabolites (AITC-GSH or AITC-CG) could be detected

SMILES: C=CCNC(=S)SC[C@H](NC(C)=O)C(=O)O [AITC-NAC]
- blood plasma level ([3]; 0.5 h after 10 g mustard preparation): 836.7 ± 67.7 nM
- blood plasma level ([3]; 1 h after 10 g mustard preparation): 1001.0 ± 228.3 nM

- effect on calcium release ([6]; 0.1% DMSO): no effect
- mean calcium increase compared to untreated cells ([6]; starting from 1.5% DMSO, not statistically significant): 36%
SMILES: C[S+](C)[O-] [DMSO, Dimethyl sulfoxide]
- threshold concentration [4]: > 125 mM
- calcium release [5]: significant calcium release

SMILES: O=C(O)CN(CCN(CC(=O)O)CC(=O)O)CC(=O)O [EDTA]
- effect on calcium influx triggered by AITC ([7]; 1 µM AITC): did not impact
- reduction in calcium flux ([7]; 100 µM AITC): 67%

SMILES: C[S@@+]([O-])CCCCN=C=S [L-sulforaphane]
- activation of the TAS2R38-PAV receptor [1]: did not

SMILES: NC(=S)Nc1ccccc1 [PTC]
- NO production [8]: stimulated

- effect on AITC induced calcium release [9]: almost completely block
SMILES: COc1ccc2c(c1)CC[C@@H]1[C@@H]2CC[C@]2(C)[C@@H](NCCCCCCN3C(=O)C=CC3=O)CC[C@@H]12 [U73122]

- effect on AITC mediated calcium release ([10]; capsazepine pretreatment, 1 µM AITC): not effected
SMILES: Oc1cc2c(cc1O)CN(C(=S)NCCc1ccc(Cl)cc1)CCC2 [capsazepine]
- effect on AITC mediated calcium release ([10]; pretreatment 10 µM capsazepine, stimulation with 100 µM AITC): reduction of AITC mediated calcium release

SMILES: CC[N+](CC)(CC(=O)Nc1c(C)cccc1C)Cc1ccccc1 [denatonium]
- cytokine release [11]: marginal change
- multiple cytokine production, including TNF-α [12]: marked reduction

SMILES: S=C=NCCc1ccccc1 [phenylethyl ITC]
- activation of the TAS2R38-PAV receptor [1]: activated
